{"source": "paper PMC11822212", "about": "“High-throughput screening identifies Aurora kinase B as a critical therapeutic target for Merkel cell carcinoma” (Nature Communications, 2025)", "experiment": "qHTS cell viability (CellTiter-Glo, 72 h; primary screen), control cell line", "type": "cell-based, mouse", "settings": "mouse, read-out: Percent viability"}
{"smiles": "COCCn1c2c([n+](Cc3cnccn3)c1C)C(=O)c1ccccc1C2=O", "note": "[sepantronium bromide, reference compound]", "values": [{"measurement": "viability at 72 h, 15.4 µM", "setting": "NIH-3T3 cells (control cell line), 3T3, Log (M) -4.81358", "value": 62.5, "unit": "%"}, {"measurement": "viability at 72 h, 5.12 µM", "setting": "NIH-3T3 cells (control cell line), 3T3, Log (M) -5.2907", "value": 69.8, "unit": "%"}, {"measurement": "viability at 72 h, 1.71 µM", "setting": "NIH-3T3 cells (control cell line), 3T3, Log (M) -5.76782", "value": 96.1, "unit": "%"}, {"measurement": "viability at 72 h, 0.569 µM", "setting": "NIH-3T3 cells (control cell line), 3T3, Log (M) -6.24494", "value": 104, "unit": "%"}, {"measurement": "viability at 72 h, 190 nM", "setting": "NIH-3T3 cells (control cell line), 3T3, Log (M) -6.72207", "value": 100, "unit": "%"}, {"measurement": "viability at 72 h, 63.2 nM", "setting": "NIH-3T3 cells (control cell line), 3T3, Log (M) -7.19919", "value": 100, "unit": "%"}, {"measurement": "viability at 72 h, 21.1 nM", "setting": "NIH-3T3 cells (control cell line), 3T3, Log (M) -7.67631", "value": 104, "unit": "%"}, {"measurement": "viability at 72 h, 46.1 µM", "setting": "NIH-3T3 cells, 3T3, Log (M) -4.33646", "value": 20.8, "unit": "%"}, {"measurement": "viability at 72 h, 7.02 nM", "setting": "NIH-3T3 cells, 3T3, Log (M) -8.15343", "value": 103, "unit": "%"}, {"measurement": "viability at 72 h, 2.34 nM", "setting": "NIH-3T3 cells, 3T3, Log (M) -8.63055", "value": 100, "unit": "%"}, {"measurement": "viability at 72 h, 0.78 nM", "setting": "NIH-3T3 cells, 3T3, Log (M) -9.10767", "value": 100, "unit": "%"}]}
